Reference: patent publication US4728733A, “C-3' thiadiazinyl cephalosporin analogs” (American Home Products Corporation, priority 1985, dated 1988)
Values after ≈ are worked out from the molar mass of the structure shown. Where a name gives a salt, the structure may show the parent alone.

Assays:
Assay type in all cases: cell-based
[1] = tested on: Klebsiella pneunomiae KL-1; assay: Antibacterial activity, MIC, procedure B (agar dilution); details: KL1
Protocol: (§1) The compounds of the invention are tested for their antibacterial activity. The test can be carried out in two ways:
(§2) B. The organisms used in the test comprise the following: Staphylococcus aureus (penicillin-sensitive and resistant), Pseudomonas aeruginosa, Escherichia coli, […], Bordetella bronchiseptica, Proteus vulgaris, P. mirabilis, Acinetobacter calcoaceticus.
(§3) Test organisms may be added or deleted in order to reflect current clinical patterns of antibiotic susceptibility or shifts in pathogenic potential.
(§4) Organisms are normally grown for 18 hours in Brain Heart Infusion at 35° C. Cultures are adjusted with saline to MacFarland No. 1.5 standard prior to use.
(§5) Stock concentrations (e.g. 2,5000 μg or units per ml) are prepared in a suitable vehicle. Two-fold dilutions are made. One ml quantities of each dilution are incorporated in 9 ml of the appropriate agar (e.g. Seed) in sterile Petri plates. The hardened surface is inoculated with test organisms by use of a Steers replicating device. The plates are incubated (e.g. 18 hours at 35° C.) and activity is determined.

[2] = tested on: Escherichia coli ATCC 25922; assay: as above; details: ATCC25922
Protocol: as §1, §2, §3, §4, §5

[3] = tested on: Streptococcus faecalis ATCC 29212; assay: as above; details: Enterococcus faecalis, ATCC29212
Protocol: as §1, §2, §3, §4, §5

[4] = tested on: Staphylococcus aureus ATCC 29213; assay: as above; details: ATCC29213
Protocol: as §1, §2, §3, §4, §5

[5] = tested on: Proteus vulgaris A 84354 1; assay: as above; details: A843541
Protocol: as §1, §2, §3, §4, §5

[6] = tested on: Enterobacter cloacae ATCC 13047; assay: as above; details: ATCC13047
Protocol: as §1, §2, §3, §4, §5

[7] = tested on: Serratia marcescens ATCC 13880; assay: as above; details: ATCC13880
Protocol: as §1, §2, §3, §4, §5

[8] = tested on: Pseudomonas aeruginosa ATCC 27853; assay: as above; details: ATCC27853
Protocol: as §1, §2, §3, §4, §5

[9] = tested on: Klebsiella pneunomiae KL-1; assay: Antibacterial activity, MIC, procedure A (broth dilution); details: KL1
Protocol: as §1
(§6) A. The organisms used in the test comprise the following: Staphylococcus aureus (penicillin-sensitive and resistant), Pseudomonas aeruginosa, Escherichia coli, […], Bordetella bronchiseptica, Proteus vulgaris, P. mirabilis, Acinetobacter calcoaceticus.
as §3
(§7) Stock solution of appropriate medium (e.g. Mueller-Hinton Broth) is sterilized. Starting at a predetermined concentration (e.g. 250 μg/ml), two-fold dilutions are made with the Dynatech Automatic Diluter in a Microtiter plate of 8 rows of 12 wells each in which 11 wells in each row contain 50 μl of medium (e.g. Mueller-Hinton Broth) and the 12th well contains in 100 μl an aliquot of the compound to be tested. The diluted plates are inoculated using the Dynatech Automatic Inoculator which delivers the final inoculum (e.g. 10^5 cfu/ml of a seven-hour culture which has been incubated at 35° C.).
(§8) Plates are sealed with tape and incubated (e.g. 18 hours at 35° C.).

[10] = tested on: Escherichia coli ATCC 25922; assay: as above; details: ATCC25922
Protocol: as §1, §6, §3, §7, §8

[11] = tested on: Streptococcus faecalis ATCC 29212; assay: as above; details: Enterococcus faecalis, ATCC29212
Protocol: as §1, §6, §3, §7, §8

[12] = tested on: Staphylococcus aureus ATCC 29213; assay: as above; details: ATCC29213
Protocol: as §1, §6, §3, §7, §8

[13] = tested on: Proteus vulgaris A 84354 1; assay: as above; details: A843541
Protocol: as §1, §6, §3, §7, §8

[14] = tested on: Enterobacter cloacae ATCC 13047; assay: as above; details: ATCC13047
Protocol: as §1, §6, §3, §7, §8

[15] = tested on: Serratia marcescens ATCC 13880; assay: as above; details: ATCC13880
Protocol: as §1, §6, §3, §7, §8

[16] = tested on: Pseudomonas aeruginosa ATCC 27853; assay: as above; details: ATCC27853
Protocol: as §1, §6, §3, §7, §8

| MIC [1] | MIC [2] | MIC [3] | MIC [4] | MIC [5] | MIC [6] | MIC [7] | MIC [8] | MIC [9] | MIC [10] | MIC [11] | MIC [12] | MIC [13] | MIC [14] | MIC [15] | MIC [16] | SMILES |
| --- | --- | --- | --- | --- | --- | --- | --- | --- | --- | --- | --- | --- | --- | --- | --- | --- |
| 1 µg/mL (≈ 1.6 µM) | 2 µg/mL (≈ 3.2 µM) | 256 µg/mL (≈ 410 µM) | 64 µg/mL (≈ 102 µM) | 0.25 µg/mL (≈ 0.4 µM) | 64 µg/mL (≈ 102 µM) | 32 µg/mL (≈ 51.2 µM) | 256 µg/mL (≈ 410 µM) | – | – | – | – | – | – | – | – | CO/N=C(\C(=O)N[C@@H]1C(=O)N2C(C(=O)OC(C)(C)C)=C(CN3C(=O)C(C#N)=CNS3(=O)=O)CS[C@H]12)c1csc(N)n1 [Example 1 B, (6R,7R)-7-[[(Z)-(2-Amino-4-thiazolyl)(methoxyimino)acetyl]amino]-3-[(4-cyano-3,6-dihydro-3-oxo-2H-1,2,6-thiadiazin-2-yl)methyl]-8-oxo-5-thia-1-azabicyclo[4.2.0]oct-2-ene-2-carboxylic acid 1,1-dimethylethyl ester S^3, S^3-dioxide] |
| 0.125 µg/mL | 1 µg/mL | 128 µg/mL | 32 µg/mL | 1 µg/mL | 32 µg/mL | 8 µg/mL | 256 µg/mL | – | – | – | – | – | – | – | – | CO/N=C(\C(=O)N[C@@H]1C(=O)N2C(C(=O)O)=C(CN3C(=O)C(C#N)=CNS3(=O)=O)CS[C@H]12)c1csc(N)n1 [Example 1 C, (6R,7R)-7-[[(Z)-(2-Amino-4-thiazolyl)(methoxyimino)acetyl]amino]-3-[(4-cyano-3,6-dihydro-3-oxo-2H-1,2,6-thiadiazin-2-yl)methyl]-8-oxo-5-thia-1-azabicyclo[4.2.0]oct-2-ene-2-carboxylic acid, S^3, S^3-dioxide, trifluoroacetate salt] |
| – | – | – | – | – | – | – | – | 4 µg/mL (≈ 6.16 µM) | 8 µg/mL (≈ 12.3 µM) | 128 µg/mL (≈ 197 µM) | 64 µg/mL (≈ 98.5 µM) | 1 µg/mL (≈ 1.54 µM) | 64 µg/mL (≈ 98.5 µM) | 64 µg/mL (≈ 98.5 µM) | 128 µg/mL (≈ 197 µM) | CO/N=C(\C(=O)N[C@@H]1C(=O)N2C(C(=O)OC(C)(C)C)=C(CN3C(=O)c4ccccc4NS3(=O)=O)CS[C@H]12)c1csc(N)n1 [Example 2 B, (6R,7R)-7-[[(Z)-(2-Amino-4-thiazolyl)(methoxyimino)acetyl]amino]-3-[(1,4-dihydro-4-oxo-3H-2,1,3-benzothiadiazin-3-yl)methyl]-8-oxo-5-thia-1-azabicyclo[4.2.0]oct-2-ene-2-carboxylic acid 1,1-dimethylethyl ester, S^3, S^3-dioxide] |
| – | – | – | – | – | – | – | – | 2 µg/mL | 4 µg/mL | 128 µg/mL | 32 µg/mL | 0.25 µg/mL | 64 µg/mL | 16 µg/mL | 128 µg/mL | CO/N=C(\C(=O)N[C@@H]1C(=O)N2C(C(=O)O)=C(CN3C(=O)c4ccccc4NS3(=O)=O)CS[C@H]12)c1csc(N)n1 [Example 2 C, (6R,7R)-7-[[(Z)-(2-Amino-4-thiazolyl)(methoxyimino)acetyl]amino]-3-[(1,4-dihydro-4-oxo-3H-2,1,3-benzothiadiazin-3-yl)methyl]-8-oxo-5-thia-1-azabicyclo[4.2.0]oct-2-ene-2-carboxylic acid S^3, S^3-dioxide, trifluoroacetate salt] |
